From PubChem BioAssay (NCI)
Where “and” joins values, the source holds several entries; their conditions need not be identical. Identical values can stand only once.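 Following 48 hours of exposure in 96-well plates, responses at five concentrations were used to interpolate endpoints linearly. GI50 is the concentration that inhibits growth by half. TGI: total growth inhibition.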

What was measured:
Experiment in all cases: DTP human tumour cell line panel, 48 h
RPMI-8226 leukemia = tested on: RPMI-8226 leukemia
HT29 colon = tested on: HT29 colon
OVCAR-5 ovarian = tested on: OVCAR-5 ovarian
NCI-H23 lung = tested on: NCI-H23 lung
SNB-19 CNS = tested on: SNB-19 CNS
OVCAR-3 ovarian = tested on: OVCAR-3 ovarian
SF-295 CNS = tested on: SF-295 CNS
NCI-H226 lung = tested on: NCI-H226 lung
BT-549 breast = tested on: BT-549 breast
SN12C renal = tested on: SN12C renal

Structure (SMILES) | GI50 (RPMI-8226 leukemia) | TGI (RPMI-8226 leukemia) | GI50 (HT29 colon) | TGI (HT29 colon) | GI50 (OVCAR-5 ovarian) | TGI (OVCAR-5 ovarian) | GI50 (NCI-H23 lung) | TGI (NCI-H23 lung) | GI50 (SNB-19 CNS) | TGI (SNB-19 CNS) | GI50 (OVCAR-3 ovarian) | TGI (OVCAR-3 ovarian) | GI50 (SF-295 CNS) | TGI (SF-295 CNS) | GI50 (NCI-H226 lung) | TGI (NCI-H226 lung) | GI50 (BT-549 breast) | TGI (BT-549 breast) | GI50 (SN12C renal) | TGI (SN12C renal)
COc1ccc(NC(=O)c2sc3nc(C)c(C(=O)/C=C/c4cccc(OC)c4)cc3c2N)cc1 | 0.989 µM | 3.08 µM | 1.02 µM | 2.35 µM | 1.62 µM | 9 µM | 2.35 µM | 18.6 µM | 1.72 µM | 6.73 µM | 0.939 µM | 2.68 µM | 3.28 µM | > 50 µM | 1.89 µM | 10.3 µM | 1.02 µM | 2.67 µM | 1.43 µM | 4.47 µM
COc1ccc2c(c1OC)C(C(Cl)(Cl)Cl)N1CCc3cc4c(cc3C1=C2)OCO4 (stereo not drawn) | – | 11.3 µM | – | 68.4 µM | – | > 100 µM | – | > 100 µM | – | > 100 µM | – | 65.8 µM | – | > 100 µM | – | 70.1 µM | – | 8.63 µM | – | > 100 µM
COC(=O)Nc1nc2ccc(C(=O)c3ccccc3)cc2[nH]1 | 0.903 µM and 0.297 µM | > 100 µM and 15 µM | 0.363 µM and 0.26 µM | 8.21 µM and 11.2 µM | 5.38 µM and 2.5 µM | > 100 µM | 0.747 µM and 1.13 µM | > 100 µM | 0.587 µM and 0.471 µM | > 100 µM | 0.324 µM and 0.172 µM | 0.864 µM and 0.415 µM | 0.4 µM and 0.255 µM | > 60.5 µM | 1.05 µM and 0.441 µM | 28.9 µM and > 100 µM | 1.2 µM and 3.27 µM | > 100 µM and 52.1 µM | 1.09 µM and 0.62 µM | > 100 µM
Cc1c(N)nc(C(CC(N)=O)NCC(N)C(N)=O)nc1C(=O)NC(C(=O)NC(C)C(O)C(C)C(=O)NC(C(=O)NCCc1nc(-c2nc(C(=O)NCCCNC(C)c3ccccc3)cs2)cs1)C(C)O)C(OC1OC(CO)C(O)C(O)C1OC1OC(CO)C(O)C(OC(N)=O)C1O)c1cnc[nH]1 (stereo not drawn) | 50.4 µM | 20.3 µM and > 100 µM | – | 50 µM and > 100 µM | 2.21 µM | 47.2 µM and > 100 µM | 3.31 µM | 8.37 µM and 64.6 µM | 14.5 µM | 39.7 µM and > 100 µM | 79.2 µM | 38.3 µM and > 100 µM | 0.115 µM | 5.22 µM and 3.46 µM | 1.59 µM | 2.97 µM and 24.8 µM | – | 50 µM | 5.99 µM | 29.3 µM and > 100 µM
O=CN1N=C(c2cccc(Nc3ccnc4cc(Cl)ccc34)c2)CC1c1ccccc1 (stereo not drawn) | 0.471 µM | 4.51 µM | 0.327 µM | 1.15 µM | 1.5 µM | > 100 µM | 0.551 µM | > 36.8 µM | 0.585 µM | > 100 µM | 0.269 µM | 0.774 µM | 0.306 µM | 1.66 µM | 3.32 µM | > 55.7 µM | 0.207 µM | 1.51 µM | 0.617 µM | > 54.3 µM
COc1ccc(/C=C2\SC(=Nc3ccccc3)NC2=O)cc1 | 5.38 µM | > 100 µM | 4.38 µM | 19.5 µM | 12.5 µM | > 100 µM | 8.6 µM | 80.5 µM | 6.34 µM | 83.7 µM | 3.67 µM | 11.2 µM | 4.6 µM | > 100 µM | 13.8 µM | > 100 µM | 45.7 µM | > 100 µM | 9.1 µM | > 100 µM
Cn1c(-c2ccccc2)c(/C=C/C2=[N+](C)c3ccccc3C2(C)C)c2ccccc21 | 0.167 µM | 0.911 µM | 0.711 µM | 7.59 µM | 3.96 µM | 20 µM | 0.784 µM | 5.17 µM | 0.571 µM | 15.5 µM | 0.664 µM | 6.37 µM | 0.775 µM | 3.73 µM | 2.35 µM | 12.2 µM | 0.476 µM | 3.71 µM | 1.7 µM | 12.8 µM
